Data from ChEMBL document CHEMBL3351363 (J Med Chem, 2014).

Assays:
[1] = molecular target: T1, Muscarinic acetylcholine receptor M1 (Homo sapiens, UniProt P11229); assay: Displacement of [3H]NMS from human M1 receptor expressed in CHO cells by microplate scintillation counting based radioligand binding assay; type: cell-based
T1 sequence (P11229 whole entry): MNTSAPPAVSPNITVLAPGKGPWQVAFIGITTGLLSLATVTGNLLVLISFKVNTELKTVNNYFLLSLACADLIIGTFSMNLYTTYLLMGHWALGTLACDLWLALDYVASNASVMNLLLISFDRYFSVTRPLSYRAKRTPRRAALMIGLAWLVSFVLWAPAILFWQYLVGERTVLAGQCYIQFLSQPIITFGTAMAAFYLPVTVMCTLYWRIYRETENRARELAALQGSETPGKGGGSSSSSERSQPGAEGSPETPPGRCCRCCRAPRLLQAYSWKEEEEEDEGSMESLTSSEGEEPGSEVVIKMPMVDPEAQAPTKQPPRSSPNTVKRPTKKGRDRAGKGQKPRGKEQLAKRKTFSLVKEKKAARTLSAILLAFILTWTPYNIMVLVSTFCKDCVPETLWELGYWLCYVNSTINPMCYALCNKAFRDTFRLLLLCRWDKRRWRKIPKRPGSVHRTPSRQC

[2] = molecular target: Muscarinic acetylcholine receptor M3 (Homo sapiens, UniProt P20309); assay: Displacement of [3H]NMS from human M3 receptor expressed in CHO cells by microplate scintillation counting based radioligand binding assay; type: cell-based
[3] = molecular target: T1, Muscarinic acetylcholine receptor M1; assay: Agonist activity at human M1 receptor expressed in HEK293T cells by BRET based Gq protein engagement assay
[4] = molecular target: T1, Muscarinic acetylcholine receptor M1; assay: Positive modulatory activity at human M1 receptor expressed in HEK293T cells assessed as effect on carbachol-induced response by BRET based Gq protein engagement assay; type: cell-based, HEK-293T
[5] = molecular target: T2, Muscarinic acetylcholine receptor M1 (Homo sapiens) (UniProt P11229); assay: Positive modulatory activity at human M1 receptor expressed in HEK293T cells assessed as effect on carbachol-induced response by BRET based Gq protein engagement assay relative to untreated control; type: cell-based; details: HEK-293T
T2 sequence (whole entry): T1 sequence (P11229 whole entry)

[6] = molecular target: T1, Muscarinic acetylcholine receptor M1; assay: Agonist activity at human M1 receptor expressed in HEK293T cells by BRET based Gq protein activation assay; type: cell-based, HEK-293T
[7] = molecular target: T2, Muscarinic acetylcholine receptor M1 (Homo sapiens); assay: Agonist activity at human M1 receptor expressed in HEK293T cells by BRET based Gq protein activation assay relative to carbachol; type: cell-based; details: HEK-293T
[8] = molecular target: T1, Muscarinic acetylcholine receptor M1; assay: Positive modulatory activity at human M1 receptor expressed in HEK293T cells assessed as effect on carbachol-induced response by BRET based Gq protein activation assay; type: cell-based, HEK-293T
[9] = molecular target: T2, Muscarinic acetylcholine receptor M1 (Homo sapiens); assay: Positive modulatory activity at human M1 receptor expressed in HEK293T cells assessed as effect on carbachol-induced response by BRET based Gq protein activation assay relative to untreated control; type: cell-based; details: HEK-293T
[10] = molecular target: T1, Muscarinic acetylcholine receptor M1; assay: Agonist activity at human M1 receptor expressed in HEK293T cells by BRET based beta-arrestin engagement assay
[11] = molecular target: T2, Muscarinic acetylcholine receptor M1 (Homo sapiens); assay: Agonist activity at human M1 receptor expressed in HEK293T cells by BRET based beta-arrestin engagement assay relative to carbachol; type: cell-based; details: HEK-293T
[12] = molecular target: T3, Muscarinic acetylcholine receptor M4 (Homo sapiens) (UniProt P08173); assay: Antagonist activity at human M4 receptor expressed in HEK293T cells assessed as inhibition of carbachol-induced response by BRET based Gq protein engagement assay relative to untreated control; type: cell-based; details: HEK-293T
T3 sequence (whole entry): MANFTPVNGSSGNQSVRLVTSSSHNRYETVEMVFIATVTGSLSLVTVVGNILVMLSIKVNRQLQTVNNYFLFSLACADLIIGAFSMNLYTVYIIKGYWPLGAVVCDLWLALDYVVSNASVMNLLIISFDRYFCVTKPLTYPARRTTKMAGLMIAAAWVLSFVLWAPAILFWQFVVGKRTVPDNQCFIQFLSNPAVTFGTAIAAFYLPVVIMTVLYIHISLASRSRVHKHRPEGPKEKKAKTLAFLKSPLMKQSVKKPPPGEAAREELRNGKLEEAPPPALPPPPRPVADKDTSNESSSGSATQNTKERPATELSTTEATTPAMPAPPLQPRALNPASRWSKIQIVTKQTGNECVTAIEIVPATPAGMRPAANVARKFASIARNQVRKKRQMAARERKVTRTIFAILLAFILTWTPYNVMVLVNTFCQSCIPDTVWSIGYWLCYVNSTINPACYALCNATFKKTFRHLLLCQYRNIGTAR

[13] = molecular target: T3, Muscarinic acetylcholine receptor M4 (Homo sapiens); assay: Antagonist activity at human M4 receptor expressed in HEK293T cells assessed as inhibition of xanomeline-induced response by BRET based Gq protein engagement assay relative to untreated control; type: cell-based; details: HEK-293T
[14] = molecular target: T4, Muscarinic acetylcholine receptor M4 (Homo sapiens, UniProt P08173); assay: Agonist activity at human M4 receptor expressed in HEK293T cells by BRET based Gq protein activation assay
T4 sequence (P08173 whole entry): T3 sequence (whole entry)

[15] = molecular target: T4, Muscarinic acetylcholine receptor M4; assay: Antagonist activity at human M4 receptor expressed in HEK293T cells assessed as inhibition of carbachol-induced response by beta-arrestin engagement assay; type: cell-based, HEK-293T
[16] = molecular target: T3, Muscarinic acetylcholine receptor M4 (Homo sapiens); assay: Antagonist activity at human M4 receptor expressed in HEK293T cells assessed as inhibition of carbachol-induced response by beta-arrestin engagement assay relative to untreated control; type: cell-based; details: HEK-293T
[17] = molecular target: T3, Muscarinic acetylcholine receptor M4 (Homo sapiens); assay: Antagonist activity at human M4 receptor expressed in HEK293T cells assessed as inhibition of xanomeline-induced response by beta-arrestin engagement assay relative to untreated control; type: cell-based; details: HEK-293T
[18] = molecular target: T1, Muscarinic acetylcholine receptor M1
[19] = molecular target: T1, Muscarinic acetylcholine receptor M1; remark: listed apart in the source
[20] = molecular target: T1, Muscarinic acetylcholine receptor M1; remark: listed apart in the source
[21] = molecular target: T1, Muscarinic acetylcholine receptor M1; remark: listed apart in the source
[22] = molecular target: T3, Muscarinic acetylcholine receptor M4 (Homo sapiens); assay: Antagonist activity at human M4 receptor expressed in HEK293T cells assessed as inhibition of carbachol-induced response by BRET based Gi protein activation assay relative to untreated control; details: HEK-293T

Muscarinic acetylcholine receptor M3, sequence (P20309 whole entry): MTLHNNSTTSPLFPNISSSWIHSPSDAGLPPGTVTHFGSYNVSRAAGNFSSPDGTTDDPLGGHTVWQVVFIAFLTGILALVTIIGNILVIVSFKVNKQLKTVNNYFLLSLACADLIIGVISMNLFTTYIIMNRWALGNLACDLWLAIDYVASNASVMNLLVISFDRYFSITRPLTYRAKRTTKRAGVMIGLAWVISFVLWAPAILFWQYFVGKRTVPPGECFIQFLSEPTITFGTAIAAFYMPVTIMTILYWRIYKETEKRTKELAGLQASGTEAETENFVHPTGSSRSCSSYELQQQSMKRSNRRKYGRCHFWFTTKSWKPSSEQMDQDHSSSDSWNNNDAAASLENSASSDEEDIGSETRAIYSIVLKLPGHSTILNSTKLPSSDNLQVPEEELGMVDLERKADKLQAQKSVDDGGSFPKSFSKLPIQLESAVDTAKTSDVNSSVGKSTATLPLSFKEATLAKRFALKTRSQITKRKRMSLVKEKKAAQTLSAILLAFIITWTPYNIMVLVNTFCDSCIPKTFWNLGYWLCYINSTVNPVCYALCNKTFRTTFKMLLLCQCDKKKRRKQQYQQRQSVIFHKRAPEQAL

Ki [1]: 0.316 µM
Ki [2]: 1.2 µM
EC50 [3]: 0.0603 µM
EC50 [4]: 0.0347 µM
Emax [5]: 101%
EC50 [6]: 0.102 µM
Emax [7]: 57%
EC50 [8]: 0.191 µM
Emax [9]: 79%
EC50 [10]: 0.832 µM
Emax [11]: 32%
Imax [12]: 86%
Imax [13]: 78%
EC50 [14]: 0.275 µM
IC50 [15]: 0.178 µM
Imax [16]: 16%
Imax [17]: 19%
EC50 [18]: 0.12 µM
EC50 [19]: 0.263 µM
IC50 [20]: 0.174 µM
IC50 [21]: 1.58 µM
Imax [22]: 55%
Structure (SMILES): CCCCC1CCN(CCCN2C(=O)CCc3ccccc32)CC1
